Assay results taken from the NIST ThermoML archive (doi:10.1016/j.jct.2008.10.013).
± gives the expanded uncertainty stated by the source.

details: 298.15 K; 101.33 kPa; Liquid; Vibrating tube method

mass density	Compound
837.31 ± 0.31 kg/m3	C=C(C)[C@H]1CC=C(C)CC1 [(R)-1-methyl-4-(1-methylethenyl)cyclohexene]
785.24 ± 0.19 kg/m3	CCO [ethanol]
786.62 ± 0.17 kg/m3	CO [methanol]
